We go through three molecules from patent US6693103B2 (Wyeth, priority 1999, dated 2004).

One may read the melting point as the temperature of the solid-liquid transition.

Series [1] deals with rat uterine decidualization. Kind of series: Rat decidualization assay. In kind it is in vivo. The settings on record: ovariectomized female Sprague-Dawley rats, s.c.; average of dose-response curves. Here is the method: The animals are treated once daily for seven days.
Uteri are removed and trimmed of fat.
Decidual response: [(D−C)/C]×100%

Take `C#C[C@]1(O)CC[C@H]2[C@@H]3CCC4=CC(=O)CC[C@@H]4[C@H]3C(=C)C[C@@]21CC` [3-Ketodesogestrel]: in series [1], the “average EC50 for uterine weight (decidual response)” value was found to be 0.10 mg/kg.

For `C#C[C@]1(O)CC[C@H]2[C@@H]3CCC4=CC(=O)CC[C@@H]4[C@H]3CC[C@@]21CC` [Levonorgestrel], the “average EC50 for uterine weight (decidual response)” value in series [1] is on record as 0.10 mg/kg.

In turn, `CC1(C)CC(=O)Nc2ccc(-c3cccc(C#N)c3)cc21` [Example 42, 3-(4,4-Dimethyl-2-oxo-1,2,3,4-tetrahydroquinolin-6-yl)benzonitrile] yielded a melting point of 190 to 192 °C.
